Common to all, as to type: in vivo
Assay [1] deals with prickly sida (Sida spinosa L.), SIDSP. In words: Test Example 2 post-emergence (foliage treatment) herbicidal activity, SIDSP. As to conditions: 63 g a.i./ha. Put shortly: (§1)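 Each species was evaluated for growth suppression by eye, 0% matching untreated and 100% meaning death, some 20 to 23 days after a single post-emergence foliar treatment applied in 500 L/ha of water carrying 0.1% (v/v) agricultural spreader.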

In assay [2] the test system is green foxtail (Setaria viridis L.): SETVI. In words: Test Example 1 pre-emergence herbicidal activity, SETVI. The settings on record: visually observed 20th to 23rd day after application. Put shortly: (§2)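 Read-out: visual growth control (%, 0–100, 100 = complete kill) assessed 20 to 23 days post-treatment. Compound was applied pre-emergence by small sprayer, one day after sowing into upland soil pots, in 500 L/ha water.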

Assay [3] relates to barnyardgrass (Echinochloa crus-galli L.), ECHCG. Description: Test Example 2 post-emergence (foliage treatment) herbicidal activity, ECHCG. The settings on record: 63 g a.i./ha. The essentials: (§3)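 Post-emergence, upland soil pots; leaf stage at spray: ECHCG 1.1-2.1 / DIGSA 1.0-2.0 / AMARE 0.1-1.5 / ORYSA 1.0-2. WP or EC formulation, set active ingredient rate, 500 L/ha water + 0.1% v/v spreader. Visual rating at d20-23, % control 0-100.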

Assay [4] concerns rice (Oryza sativa L.: ORYSA). Description: Test Example 3 water application herbicidal activity (paddy), transplanted rice ORYSA. As to conditions: 63 g a.i./ha, water application 4th day after transplantation of 2 leaf stage rice, visually observed 21st day after application; 0 = untreated control, 100 = complete kill. The source says: (§4) Paddy field soil was put into a 1/1,000,000 ha pot and seeds of barnyardgrass (Echinochiloa oryzicola: ECHOR) and japanese bulrush (Scirpus juncoides: SCPJO) were sown and slightly covered with soil. Then the pot was left to stand still in a greenhouse in a state where the depth of flooding water was from 0.5 to 1 cm, and one day later, tubers of japanese ribbon wapato (Sagittaria pygmaea: SA GPY) were planted. Thereafter, the depth of flooding water was maintained at a level of from 3 to 4 cm, and when barnyardgrass and japanese bulrush reached a 0.5 leaf stage, an aqueous diluted solution of a wettable powder or emulsifiable concentrate having the compound of the present invention formulated in accordance with a usual formulation method, was uniformly applied under submerged condition by a pipette so that the dose of the active ingredient would be at a predetermined level. On the other hand, paddy filed soil was put into a 1/1,000,000 ha pot and puddled and leveled, and the depth of flooding water was from 3 to 4 cm. One day later, rice (Oryza sativa L.: ORYSA) of 2 leaf stage was transplanted in a depth of 3 cm. On the 4th day after the transplantation, the compound of the present invention was applied in the same manner as described above. On the 14th day after the application of the herbicide, the growth of barnyardgrass, japanese burlush and japanese ribbon wapato was visually observed and on the 21st day after the application of the herbicide, the growth of rice was visually observed, and the herbicidal effects were evaluated by growth controlling degrees (%) ranging from 0 (equivalent to the untreated control) to 100 (complete kill), whereby the results shown in Table 6, were obtained. Compound Nos. in Table 6 correspond to Compound Nos. in Table 1 and 2 given hereinbefore.

In assay [5] the test system is barnyardgrass (Echinochloa crus-galli L.): ECHCG. Description: Test Example 1 pre-emergence herbicidal activity, ECHCG. As to conditions: visually observed 20th to 23rd day after application. The essentials:
as §2

Assay [6] deals with crabgrass (Digitaria sanguinalis L.): DIGSA. Description: Test Example 1 pre-emergence herbicidal activity, DIGSA. The settings on record: visually observed 20th to 23rd day after application. The essentials:
as §2

The test system of assay [7] is soybean (Glycine max Merr.), GLXMA. In words: Test Example 2 post-emergence (foliage treatment) herbicidal activity, GLXMA. As to conditions: 63 g a.i./ha. The essentials:
as §1

Assay [8] concerns wheat (Triticum aestivum L.): TRZAX. Description: Test Example 1 pre-emergence herbicidal activity, TRZAX. The settings on record: visually observed 20th to 23rd day after application. Put shortly: as §2
The subject of assay [9] is japanese ribbon wapato (Sagittaria pygmaea: SA GPY). In words: Test Example 3 water application herbicidal activity (paddy), SAGPY. The settings on record: 63 g a.i./ha, water application under submerged condition, tubers planted, visually observed 14th day after application; 0 = untreated control, 100 = complete kill.
Excerpt: as §4

Assay [10] deals with rice (Oryza sativa L.), ORYSA. Description: Test Example 2 post-emergence (foliage treatment) herbicidal activity, ORYSA. As to conditions: 63 g a.i./ha. Put shortly:
as §3

Assay [11] deals with velvetleaf (Abutilon theophrasti): ABUTH. Description: Test Example 1 pre-emergence herbicidal activity, ABUTH. The settings on record: visually observed 20th to 23rd day after application. The essentials: as §2
The subject of assay [12] is prickly sida (Sida spinosa L.): SEDSP. In words: Test Example 1 pre-emergence herbicidal activity, SIDSP. As to conditions: visually observed 20th to 23rd day after application. The essentials:
as §2

Assay [13] has as its system green foxtail (Setaria viridis L.), SETVI. In words: Test Example 2 post-emergence (foliage treatment) herbicidal activity, SETVI. As to conditions: 63 g a.i./ha. The essentials: as §1
The subject of assay [14] is japanese bulrush (Scirpus juncoides: SCPJO). Description: Test Example 3 water application herbicidal activity (paddy), SCPJO. As to conditions: 63 g a.i./ha, water application under submerged condition at 0.5 leaf stage, visually observed 14th day after application; 0 = untreated control, 100 = complete kill.
Excerpt: as §4

The test system of assay [15] is redroot pigweed (Amaranthus retroflexus L.): AMARE. In words: Test Example 1 pre-emergence herbicidal activity, AMARE. The settings on record: visually observed 20th to 23rd day after application. The essentials: as §2
The test system of assay [16] is velvetleaf (Abutilon theophrasti), ABUTH. Description: Test Example 2 post-emergence (foliage treatment) herbicidal activity, ABUTH. As to conditions: 63 g a.i./ha. Put shortly:
as §1

For assay [17], the system named is crabgrass (Digitaria sanguinalis L.), DIGSA. In words: Test Example 2 post-emergence (foliage treatment) herbicidal activity, DIGSA. As to conditions: 63 g a.i./ha. The essentials: as §3
Assay [18] relates to corn (Zea mays L.): ZEAMX. In words: Test Example 1 pre-emergence herbicidal activity, ZEAMX. As to conditions: visually observed 20th to 23rd day after application. Put shortly:
as §2

In assay [19] the test system is barnyardgrass (Echinochiloa oryzicola: ECHOR). Description: Test Example 3 water application herbicidal activity (paddy), ECHOR. The settings on record: 63 g a.i./ha, water application under submerged condition at 0.5 leaf stage, visually observed 14th day after application; 0 = untreated control, 100 = complete kill.
Excerpt: as §4

Assay [20] deals with corn (Zea mays L.), ZEAMX. Description: Test Example 2 post-emergence (foliage treatment) herbicidal activity, ZEAMX. The settings on record: 63 g a.i./ha. Put shortly: as §1
Assay [21] deals with soybean (Glycine max Merr.): GLXMA. Description: Test Example 1 pre-emergence herbicidal activity, GLXMA. The settings on record: visually observed 20th to 23rd day after application. The essentials: as §2
Assay [22] deals with wheat (Triticum aestivum L.), TRZAX. Description: Test Example 2 post-emergence (foliage treatment) herbicidal activity, TRZAX. As to conditions: 63 g a.i./ha. The essentials: as §1
Assay [23] deals with rice (Oryza sativa L.): ORYSA. Description: Test Example 1 pre-emergence herbicidal activity, ORYSA. As to conditions: visually observed 20th to 23rd day after application. Put shortly: as §2

Molecules are shown by their SMILES.

On to `COc1c(Cl)cc(F)c(-c2nn(C)c(OC(F)F)c2Cl)c1N(C(=O)OCCCl)C(=O)OCCCl` [Compound 1-52], for which the “growth controlling degree, SIDSP” value in assay [1] is 90%. Besides, the “Pre-emergence Herbicidal Activity SETVI (growth controlling degree)” value in [2] (Rate 125 g a.i./ha) is reported as 50%. Besides, the “growth controlling degree, ECHCO” value in assay [3] is given as 50%. For the same compound, in assay [4], the “growth controlling degrees (%) ORYSA” value is 20%. Besides, the “Pre-emergence Herbicidal Activity ECHCG (growth controlling degree)” value in assay [5] (Rate 125 g a.i./ha) was found to be 0%. Also, the “Pre-emergence Herbicidal Activity DIGSP (growth controlling degree)” value in assay [6] (Rate 125 g a.i./ha) was 30%. Further, in assay [7], the “growth controlling degree, GLXMA” value turned out to be 30%. Also, the “Pre-emergence Herbicidal Activity TRZAX (growth controlling degree)” value in [8] (Rate 125 g a.i./ha) is recorded as 0%. Also, the “growth controlling degrees (%) SAGPY” value in assay [9] turned out to be 0%. In assay [10], the “growth controlling degree, ORYSA” value amounted to 40%. Besides, the “Pre-emergence Herbicidal Activity ABUTH (growth controlling degree)” value in assay [11] (Rate 125 g a.i./ha) turned out to be 0%. Also, in assay [12] (Rate 125 g a.i./ha), the “Pre-emergence Herbicidal Activity SIDSP (growth controlling degree)” value stood at 0%. Also, the “growth controlling degree, SETVI” value in [13] was determined as 30%. The “growth controlling degrees (%) SCPJO” value in [14] is on record as 50%. The “Pre-emergence Herbicidal Activity AMARE (growth controlling degree)” value in assay [15] (Rate 125 g a.i./ha) is on record as 100%. Moreover, the “growth controlling degree, ABUTH” value in [16] is 80%. Moreover, the “growth controlling degree, DIGSP” value in assay [17] was found to be 30%. Further, the “Pre-emergence Herbicidal Activity ZEAMX (growth controlling degree)” value in assay [18] (Rate 125 g a.i./ha) is given as 0%. For the same compound, the “growth controlling degrees (%) ECHOR” value in [19] was 100%. The “growth controlling degree, ZEAMX” value in assay [20] worked out at 10%. The “Pre-emergence Herbicidal Activity GLXMA (growth controlling degree)” value in [21] (Rate 125 g a.i./ha) turned out to be 0%. In assay [22], the “growth controlling degree, TRZAX” value is 10%. Moreover, the “Pre-emergence Herbicidal Activity ORYSA (growth controlling degree)” value in assay [23] (Rate 125 g a.i./ha) is on record as 0%.
In the case of `COCC(=O)Nc1c(OC)c(Cl)cc(F)c1-c1nn(C)c(OC(F)F)c1Cl` [Compound 1-16], the “growth controlling degree, SIDSP” value in [1] was found to be 100%. For the same compound, the “Pre-emergence Herbicidal Activity SETVI (growth controlling degree)” value in [2] (Rate 63 g a.i./ha) was 100%. Moreover, the “growth controlling degree, ECHCO” value in assay [3] is on record as 80%. For the same compound, the “growth controlling degrees (%) ORYSA” value in assay [4] came to 70%. In addition, in assay [5] (Rate 63 g a.i./ha), the “Pre-emergence Herbicidal Activity ECHCG (growth controlling degree)” value was 100%. Further, in assay [6] (Rate 63 g a.i./ha), the “Pre-emergence Herbicidal Activity DIGSP (growth controlling degree)” value is 100%. For the same compound, the “growth controlling degree, GLXMA” value in [7] was found to be 95%. In [8] (Rate 63 g a.i./ha), the “Pre-emergence Herbicidal Activity TRZAX (growth controlling degree)” value is recorded as 10%. Besides, the “growth controlling degrees (%) SAGPY” value in assay [9] worked out at 100%. Further, the “growth controlling degree, ORYSA” value in [10] was 80%. Besides, the “Pre-emergence Herbicidal Activity ABUTH (growth controlling degree)” value in assay [11] (Rate 63 g a.i./ha) stood at 100%. Moreover, the “Pre-emergence Herbicidal Activity SIDSP (growth controlling degree)” value in assay [12] (Rate 63 g a.i./ha) was found to be 100%. In assay [13], the “growth controlling degree, SETVI” value came out at 100%. Moreover, in assay [14], the “growth controlling degrees (%) SCPJO” value was found to be 98%. The “Pre-emergence Herbicidal Activity AMARE (growth controlling degree)” value in [15] (Rate 63 g a.i./ha) is on record as 100%. In assay [16], the “growth controlling degree, ABUTH” value was 100%. In addition, the “growth controlling degree, DIGSP” value in assay [17] was 80%. In addition, the “Pre-emergence Herbicidal Activity ZEAMX (growth controlling degree)” value in [18] (Rate 63 g a.i./ha) is given as 40%. Also, in [19], the “growth controlling degrees (%) ECHOR” value is on record as 100%. The “growth controlling degree, ZEAMX” value in [20] is reported as 70%. In addition, the “Pre-emergence Herbicidal Activity GLXMA (growth controlling degree)” value in assay [21] (Rate 63 g a.i./ha) is recorded as 10%. In addition, in [22], the “growth controlling degree, TRZAX” value is listed as 50%. In [23] (Rate 63 g a.i./ha), the “Pre-emergence Herbicidal Activity ORYSA (growth controlling degree)” value came out at 40%.

The values above are taken from patent publication US20050245399A1, “Pyrazole derivatives as herbicidal compositions containing them” (ISHIHARA SANGYO KAISHA, LTD., priority 2004, published 2005).
